According to patent US4570005A, “Process for the preparation of 2-arylpropyl ether or thioether derivatives” (priority 1980, dated 1986):
Read-outs that look alike come from different tables or passages of the source.

Experiments:
[1] = tested on: sensitive green rice leafhopper (collected at Chigasaki); experiment: whole plant or invertebrate; assay type: in vivo; conditions: Nephotettix cincticeps, read-out: Mortality (%), Green Rice Leafhopper Collected at Chigasaki
Method: (§1) To a mixture of 20 parts of the compound of the present invention and 20 parts of Sorpol SM-200 (registered tradename for the product supplied by Toho Chemical Industrial Co., Ltd.) was added 60 parts of xylol, and the mixture was suffciently blended. The obtained emulsifiable concentrate was diluted at a predetermined concentration with distilled water, and the obtained dilution was used.
(§2) Seedlings (having 2 to 3 leaves) of paddy rice were hydroponically cultured in a pot having a diameter of 5 cm. A chemical dilution having a concentration of 100 or 20 ppm, prepared in the same manner as described in Test 1, was applied with a sprayer at a rate of 3 ml per pot. The treated seedlings were air-dried and covered with a metal net cylinder, and female adults of resistant green rice leafhopper (collected at Nakagawara) and sensitive green rice leafhopper (collected at Chigasaki) were set, respectively, free in the pot at a density of 10 adults per pot. After 24 hours, the numbers of killed and living adults were counted and the mortality was calculated. The test was made on three pots and the average value was calculated.

[2] = tested on: resistant green rice leafhopper (collected at Nakagawara); experiment: Test 3: Effect on Resistant Green Rice Leafhopper (collected at Nakagawara); assay type: in vivo, Nephotettix cincticeps Uhler (Green rice leafhopper); conditions: Nephotettix cincticeps, 24 h, read-out: Mortality (%), Green Rice Leafhopper Collected at Nakagawara
Method: as §1, §2

[3] = Test 9: Toxicity Test (acute oral toxicity, mice); conditions: mouse, in vivo, po
Method: A predetermined amount of a solution or suspension of a test compound in corn oil was orally administered to male mice having a body weight of 19 to 23 g (0.2 ml per 10 g of the body weight). After 7 days, the number of killed mice was counted and the influences on the mice were examined.

[4] = sensitive female adults, 24 hours
[5] = 100 ppm, sensitive female adults, 24 hours

SMILES	mortality at 20 ppm [1, 4] [%]	mortality at 100 ppm [1, 5] [%]	mortality at 20 ppm [2] [%]	mortality at 100 ppm [2] [%]	LD50 at 168 h [3] [mg/kg]	mortality at 100 ppm ([1]; 24 h) [%]
COc1ccc(Oc2cccc(COCC(C)(C)c3ccc(Br)cc3)c2)cc1 [Compound 40, 3-(4-Methoxyphenoxy)benzyl 2-(4-bromophenyl)-2-methylpropyl ether]	50	100	70	100	> 500	–
CC(C)(COCc1cccc(Oc2ccccc2)c1)c1ccc(C(=O)OCC(F)(F)F)cc1 [Compound 106, 3-Phenoxybenzyl 2-[4-(2,2,2-trifluoroethoxycarbonyl)-phenyl]-2-methylpropylether]	–	–	–	–	> 500	–
CC=C(C)c1ccc(C(C)(C)COCc2cccc(Oc3ccccc3)c2)cc1 [Compound 111, 3-Phenoxybenzyl 2-[4-(2-buten-2-yl)phenyl]-2-methylpropyl ether]	–	–	–	–	> 500	–
CC(C)(COCc1cccc(Oc2ccccc2)c1)c1ccc(OC2CCCCC2)cc1 [Compound 72, 3-Phenoxybenzyl 2-(4-cyclohexyloxyphenyl)-2-methylpropyl ether]	65	100	80	100	> 500	–
CC(C)(COCc1cccc(Oc2ccc(Br)cc2)c1)c1cccc(C(F)(F)F)c1 [Compound 42, 3-(4-Bromophenoxy)benzyl 2-(3-trifluoromethylphenyl)-2-methylpropyl ether]	95	100	100	100	> 500	–
Cc1cccc(C(C)(C)COCc2cccc(Oc3ccc(F)cc3)c2)c1 [Compound 36, 3-(4-Fluorophenoxy)benzyl 2-(3-methylphenyl)-2-methylpropyl ether]	70	95	90	100	> 500	–
CCOCCOc1ccc(C(C)(C)COCc2cccc(Oc3ccccc3)c2)cc1 [Compound 89, 3-Phenoxybenzyl 2-[4-(2-ethoxyethoxy)phenyl]-2-methylpropyl ether]	–	–	–	–	> 500	–
C=C(Cl)c1ccc(C(C)(C)COCc2cccc(Oc3ccccc3)c2)cc1 [Compound 102, 3-Phenoxybenzyl 2-[4-(1-chlorovinyl)phenyl]-2-methylpropyl ether]	–	–	–	–	> 500	–
COc1ccc(C(C)(C)COCc2cccc(Oc3ccc(F)cc3)c2)cc1 [Compound 32, 3-(4-Fluorophenoxy)benzyl 2-(4-methoxyphenyl)-2-methylpropyl ether]	100	100	100	100	> 500	–
C=C(CC)c1ccc(C(C)(C)COCc2cccc(Oc3ccccc3)c2)cc1 [Compound 110, 3-Phenoxybenzyl 2-[4-(1-buten-2-yl)phenyl]-2-methylpropyl ether]	–	–	–	–	> 500	–
CC(C)(COCc1cccc(Oc2ccc(F)cc2)c1)c1ccccc1 [Compound 28, 3-(4-Fluorophenoxy)benzyl 2-phenyl-2-methylpropyl ether]	75	100	90	100	> 500	–
COc1ccc(Oc2cccc(COCC(C)(C)c3ccc(OC)cc3)c2)cc1 [Compound 27, 3-(4-Methoxyphenoxy)benzyl 2-(4-methoxyphenyl)-2-methylpropyl ether]	50	100	70	100	> 500	–
CC(C)(COCc1cccc(Oc2ccccc2)c1)c1ccc(-c2ccccc2)cc1 [Compound 68, 3-Phenoxybenzyl 2-(4-biphenyl)-2-methylpropyl ether]	100	100	100	100	> 500	–
CNC(=O)Oc1cccc(C)c1 [Comparative Compound (e), m-tolyl-N-methylcarbamate, reference compound]	–	–	–	–	220	80
CC(C)c1ccc(C(C)(C)COCc2cccc(Oc3ccccc3)c2)cc1 [Compound 63, 3-Phenoxybenzyl 2-(4-isopropylphenyl)-2-methylpropyl ether]	95	100	100	100	> 500	–
Cc1cccc(Oc2cccc(COCC(C)(C)c3ccc(Cl)cc3)c2)c1 [Compound 26, 3-(3-Methylphenoxy)benzyl 2-(4-chlorophenyl)-2-methylpropyl ether]	60	100	85	100	> 500	–
COCc1ccc(C(C)(C)COCc2cccc(Oc3ccccc3)c2)cc1 [Compound 80, 3-Phenoxybenzyl 2-(4-methoxymethylphenyl)-2-methylpropyl ether]	–	–	–	–	> 500	–
CC(C)=Cc1ccc(C(C)(C)COCc2cccc(Oc3ccccc3)c2)cc1 [Compound 91, 3-Phenoxybenzyl 2-[4-(2-methyl-1-propenyl)phenyl]-2-methylpropyl ether]	100	100	100	100	> 500	–
CC(C)c1ccc(C(C)(C)COCc2cccc(Oc3ccc(F)cc3)c2)cc1 [Compound 77, 3-(4-Fluorophenoxy)benzyl 2-(4-isopropylphenyl)-2-methylpropyl ether]	70	100	85	100	> 500	–
COc1ccc(Oc2cccc(COCC(C)(C)c3ccc(C)cc3)c2)cc1 [Compound 44, 3-(4-methoxyphenoxy)benzyl 2-(4-methylphenyl)-2-methylpropylether]	80	100	95	100	> 500	–
COc1ccc(C(C)(C)COCc2cccc(Oc3ccccc3)c2)cc1OC [Compound 88, 3-Phenoxybenzyl 2-(3,4-dimethoxyphenyl)-2-methylpropyl ether]	60	100	80	100	> 500	–
CC(C)(COCc1cccc(Oc2cccc(Cl)c2)c1)c1ccc(Cl)cc1 [Compound 10, 3-(3-Chlorophenoxy)benzyl 2-(4-chlorophenyl)-2-methylpropyl ether]	100	100	100	100	> 500	–
C=C(C)c1ccc(C(C)(C)COCc2cccc(Oc3ccccc3)c2)cc1 [Compound 87, 3-Phenoxybenzyl 2-(4-isopropenylphenyl)-2-methylpropyl ether]	–	–	–	–	> 500	–
COc1ccc(Oc2cccc(COCC(C)(C)c3ccc(Cl)cc3)c2)cc1 [Compound 34, 3-(4-Methoxyphenoxy)benzyl 2-(4-chlorophenyl)-2-methylpropyl ether]	90	100	100	100	> 500	–
